In brackets after ≈: the same amount, converted by molar mass. Entries after “also recorded” stand apart in the source; their conditions may differ. Like-named read-outs stand apart in the source and are kept apart here. Where a SMILES comes first, the peptide text is derived from it. [ ]: non-standard residue; d: D form. The star is where a group is joined. Pyrrolidin1yl(2S-Ac) = CC(=O)[C@@H]1CCCN1*; Hyp = O=C(O)[C@@H]1C[C@@H](O)CN1; NH(CH2)2O(CH2)2NH2 = NCCOCCN*; Pyrrolidide = C1CCN(*)C1; X1 = CCN(C(C)C)*; NMeEt = CCN(C)*
Key:
[1] = test system: Caco-2 cells monolayer; assay: Apparent permeability, 21 day cultured Caco-2 cell monolayer, bi-directional (Example 7); assay type: in vitro ADME
Protocol: (§1) 10 mM stock solution of test compound was prepared in DMSO. 10 mM stock was diluted with 100% DMSO to prepare 0.2 mM, 0.2 mM stock was diluted with HBSS buffer to a final concentration of 2 μM.
(§2) Add 250 μL of DMEM to the basal compartment of 96 well multi-screen Caco-2 plates and seed 12000 cells/well (0.16×10^6 cells/ml) in all the apical wells required and 2 wells with only media as blank without cells. Place the Caco-2 plate in CO2 incubator at 37° C. for proliferation of cells.
(§3) The utilized media was replenished every alternate day by fresh medium. On 21st day, utilized medium was removed and washed twice with HBSS Buffer and incubated with HBSS buffer 30 min in incubator and initiated the assay.
(§4) 75 μL of test compound was added to apical wells and 250 μL of HBSS buffer with 1% DMSO was added to basal wells. Samples were collected at 120 min and processed as stated below.
(§5) 250 μL of test compound was added to basal wells and 75 μL of HBSS buffer with 1% DMSO was added to apical wells. Samples were collected at 120 min and processed as stated below.
(§6) Single point calibration curve in HBSS buffer was used. 100 μL of supernatant was diluted with 200 μL of water and submitted for LC-MS/MS analysis.
(§7) Efflux ratio=Papp of basal to apical samples/Papp of apical to basal samples
(§8) Recovery: {(dQ of Apical+dQ of Basal)/Standard dQ}*100

[2] = as above; assay type: in vitro ADME; conditions: human; for recovery at 120 min, 2 μM: Caco-2, 2 μM
Protocol: as §1, §2, §3, §4, §5, §6, §7, §8

[3] = test system: IL-6 cytokine release in poly I:C stimulated primary human corneal epithelial cells; assay: Soluble IL-6 cytokine release in poly I:C stimulated primary human corneal epithelial cells by ELISA (Example 2); assay type: cell-based; conditions: 25 μg/mL poly I:C, 24 hours; for Poly I:C induced IL-6 cytokine release (in words): 30, 10, 1, 0.1, 0.01, 0.001 μM
Protocol: Assay protocol as shown below was used to determine the significant effect of test compounds. The data was statistically analyzed by one-way ANOVA with a Bonferroni post test comparing all the columns. The significance was represented by the p value.
Selected YDE peptides (YDE-093, -096, -100, -101, -102, -103, -104, -105, -106 and -107) were evaluated by assessing the soluble IL-6 cytokine release in poly I:C stimulated primary human corneal epithelial cells by ELISA (Biolegend, 430504).
Specifically, primary corneal epithelial cells (ATCC, ATCC PCS-700-010) were seeded on a 6-well culture plate containing the Corneal Epithelial Cell Basal Medium (ATCC, ATCC PCS-700-030) in the Corneal Epithelial Cell Growth Kit (ATCC, ATCC PCS-700-040) in an amount of 1.2×10^5 cells per well, which was then cultured for 24 hours under the conditions of 37° C. and 5% CO2. Then, cells were washed with 1×PBS and replaced with serum free medium which was then cultured for 2 hours under the conditions of 37° C. and 5% CO2.
After 2 hours, cells were treated with compounds at 6 differential concentrations (Hinokitiol/YDE peptides at 30, 10, 1, 0.1, 0.01, and 0.001 μM) with the DMSO final 0.5% and then cultured for 1 hour under the conditions of 37° C. and 5% CO2.
After 1 hour, cells were further treated with 25 μg/mL of poly I:C and cultured for 24 hours under the conditions of 37° C. and 5% CO2.
Following incubation, the supernatant was collected for IL-6 levels was assessed by Sandwich ELISA (Enzyme-linked immunosorbent assay) following manufacturer's instructions. The data was statistically analyzed by one-way ANOVA with a Bonferroni post-test comparing all the columns. The significance was represented by the p value.

[4] = test system: IL-6 cytokine release in poly I:C stimulated primary human corneal epithelial cells; assay: Soluble IL-6 cytokine release in poly I:C stimulated primary human corneal epithelial cells by ELISA (Example 6); assay type: cell-based
Description: To determine the effect of compound by assessing the soluble IL-6 cytokine release in poly I:C stimulated primary human corneal epithelial cells by ELISA. • Test System: Primary Human Corneal Epithelial cells • Assay Format: 96-well plate format • Method of Detection: Enzyme-linked immunosorbent assay • Assay Controls: Hinokitiol Assay protocol as shown below was used to determine the significant effect of test compounds. The data was statistically analyzed by one-way ANOVA with a Bonferroni post test comparing all the columns. The significance was represented by the p value.

[5] = Solubility (in water; in saline); assay type: physicochemical; conditions: for solubility: water

CC(C)NCC(O)COc1cccc2ccccc12 (centres unmarked) [Propranolol, reference compound]
Classification (Caco-2 Permeability) [1]: HIGH
recovery at 120 min, 2 μM ([2]; 120 minutes, read-out: A to B % Recovery): 80.1%
recovery at 120 min, 2 μM ([2]; 120 minutes, read-out: B to A % Recovery): 90.3%
Papp A→B at 120 min, 2 μM ([2]; Caco-2, 2 μM, 120 minutes, average values, read-out: Papp Apical to Basal): 23.8 ×10⁻⁶ cm/s
Papp B→A at 120 min, 2 μM ([2]; Caco-2, 2 μM, 120 minutes, average values, read-out: Papp Basal to Apical): 37.1 ×10⁻⁶ cm/s
efflux ratio at 120 min, 2 μM ([2]; Caco-2, Papp B-A / Papp A-B): 1.56

CC(C)C[C@H](NC(=O)CNC(=O)[C@H](CC(C)C)NC(=O)[C@H](CCC(N)=O)NC(=O)CNC(=O)[C@@H]1C[C@@H](O)CN1)C(=O)N[C@@H](C)C(=O)NCC(=O)N1CCC[C@H]1C(=O)N[C@@H](CCCCN)C(=O)NCCOCCN [YDE-093] (H-[Hyp]GQLGLAGPK-{NH(CH2)2O(CH2)2NH2})
Poly I:C induced IL-6 cytokine release (in words) [3]: attenuation of IL-6 release; also recorded: attenuate Poly I:C induced of IL-6 cytokine release in a dose dependent manner
Poly I:C induced IL-6 cytokine release (in words) [4]: attenuate Poly I:C induced of IL-6 cytokine release in a dose dependent manner
tested concentrations with significant attenuation of IL-6 cytokine release [4]: 30 μM, 10 μM, 1 μM and 0.1 μM
Solubility in Water [5]: 10000 µg/mL (≈ 9.62 mM)

CC(C)C[C@H](NC(=O)CNC(=O)[C@H](CC(=O)O)NC(=O)[C@H](CCC(N)=O)NC(=O)CNC(=O)[C@@H]1C[C@@H](O)CN1)C(=O)N[C@@H](C)C(=O)O [YDE-094, O*GQDGLA] (H-[Hyp]GQDGLA-OH)
solubility [5]: 10000 µg/mL (≈ 14.9 mM)

CC(C)C[C@H](NC(=O)CNC(=O)[C@H](CC(C)C)NC(=O)[C@H](CCC(N)=O)NC(=O)CNC(=O)[C@@H]1C[C@@H](O)CN1)C(=O)N[C@@H](C)C(=O)NCC(=O)N1CCC[C@H]1C(=O)N[C@@H](CCCCN)C(=O)NCCOCCN [YDE-096] (H-[Hyp]GQLGLAGPK-{NH(CH2)2O(CH2)2NH2})
Poly I:C induced IL-6 cytokine release (in words) [3]: attenuation of IL-6 release; also recorded: attenuate Poly I:C induced of IL-6 cytokine release in a dose dependent manner
Poly I:C induced IL-6 cytokine release (in words) [4]: attenuate Poly I:C induced of IL-6 cytokine release in a dose dependent manner
tested concentrations with significant attenuation of IL-6 cytokine release [4]: 30 μM, 10 μM, 1 μM and 0.1 μM
solubility [5]: 10000 µg/mL (≈ 9.62 mM)

CC(=O)[C@@H]1CCCN1C(=O)CNC(=O)[C@H](C)NC(=O)[C@H](CC(C)C)NC(=O)CNC(=O)[C@H](CC(C)C)NC(=O)[C@H](CCC(N)=O)NC(=O)CNC(=O)[C@@H]1C[C@@H](O)CN1 [YDE-100] (H-[Hyp]GQLGLAG-{Pyrrolidin1yl(2S-Ac)})
tested concentrations with significant attenuation of IL-6 cytokine release [3]: 30 μM, and 10 μM
Poly I:C induced IL-6 cytokine release (in words) [3]: attenuation of IL-6 release
Poly I:C induced IL-6 cytokine release (in words) ([3]; listed as YDE100): attenuate Poly I:C induced IL-6 cytokine release in a dose dependent manner
Solubility in Water [5]: 10000 µg/mL (≈ 12.2 mM)

CC(C)C[C@H](NC(=O)CNC(=O)[C@H](CC(C)C)NC(=O)[C@H](CCC(N)=O)NC(=O)CNC(=O)[C@@H]1C[C@@H](O)CN1)C(=O)N[C@@H](C)C(=O)NCC(=O)N1CCC[C@H]1C(=O)N(C)C [YDE-101] (H-[Hyp]GQLGLAGP-NMe2)
tested concentrations with significant attenuation of IL-6 cytokine release [3]: 30 μM, 10 μM, and 1 μM
Poly I:C induced IL-6 cytokine release (in words) [3]: attenuation of IL-6 release
Poly I:C induced IL-6 cytokine release (in words) ([3]; listed as YDE101): attenuate Poly I:C induced IL-6 cytokine release in a dose dependent manner
Solubility in Water [5]: 10000 µg/mL (≈ 11.7 mM)

CCNC(=O)[C@@H]1CCCN1C(=O)CNC(=O)[C@H](C)NC(=O)[C@H](CC(C)C)NC(=O)CNC(=O)[C@H](CC(C)C)NC(=O)[C@H](CCC(N)=O)NC(=O)CNC(=O)[C@@H]1C[C@@H](O)CN1 [YDE-102] (H-[Hyp]GQLGLAGP-NHEt)
tested concentrations with significant attenuation of IL-6 cytokine release [3]: 30 μM, 10 μM, and 1 μM
Poly I:C induced IL-6 cytokine release (in words) [3]: attenuation of IL-6 release
Poly I:C induced IL-6 cytokine release (in words) ([3]; listed as YDE102): attenuate Poly I:C induced IL-6 cytokine release in a dose dependent manner
Solubility in Water [5]: 10000 µg/mL (≈ 11.7 mM)

CCN(C)C(=O)[C@@H]1CCCN1C(=O)CNC(=O)[C@H](C)NC(=O)[C@H](CC(C)C)NC(=O)CNC(=O)[C@H](CC(C)C)NC(=O)[C@H](CCC(N)=O)NC(=O)CNC(=O)[C@@H]1C[C@@H](O)CN1 [YDE-103] (H-[Hyp]GQLGLAGP-NMeEt)
tested concentrations with significant attenuation of IL-6 cytokine release ([3]; listed as YDE103): 30 μM, 10 μM, 1 μM and 0.1 μM
Poly I:C induced IL-6 cytokine release (in words) [3]: attenuation of IL-6 release
Poly I:C induced IL-6 cytokine release (in words) ([3]; listed as YDE103): attenuate Poly I:C induced IL-6 cytokine release in a dose dependent manner

CCN(C)C(=O)[C@@H]1CCCN1C(=O)CNC(=O)[C@H](C)NC(=O)[C@H](CC(C)C)NC(=O)CNC(=O)[C@H](CC(C)C)NC(=O)[C@H](CCC(N)=O)NC(=O)CNC(=O)[C@@H]1C[C@@H](O)CN1 [YDE-105] (H-[Hyp]GQLGLAGP-NMeEt)
tested concentrations with significant attenuation of IL-6 cytokine release ([3]; listed as YDE105): 30 μM, 10 μM, and 1 μM
Poly I:C induced IL-6 cytokine release (in words) ([3]; listed as YDE105): attenuate Poly I:C induced IL-6 cytokine release in a dose dependent manner
solubility [5]: 10000 µg/mL (≈ 11.5 mM)

CC(C)C[C@H](NC(=O)CNC(=O)[C@H](CC(C)C)NC(=O)[C@H](CCC(N)=O)NC(=O)CNC(=O)[C@@H]1C[C@@H](O)CN1)C(=O)N[C@@H](C)C(=O)NCC(=O)N1CCC[C@H]1C(=O)N1CCCC1 [YDE-106] (H-[Hyp]GQLGLAGP-Pyrrolidide)
tested concentrations with significant attenuation of IL-6 cytokine release [3]: 30 μM, 10 μM, and 1 μM
Poly I:C induced IL-6 cytokine release (in words) [3]: attenuation of IL-6 release
Poly I:C induced IL-6 cytokine release (in words) ([3]; listed as YDE106): attenuate Poly I:C induced IL-6 cytokine release in a dose dependent manner
Solubility in Water [5]: 10000 µg/mL (≈ 11.4 mM)

CCN(C(=O)[C@@H]1CCCN1C(=O)CNC(=O)[C@H](C)NC(=O)[C@H](CC(C)C)NC(=O)CNC(=O)[C@H](CC(C)C)NC(=O)[C@H](CCC(N)=O)NC(=O)CNC(=O)[C@@H]1C[C@@H](O)CN1)C(C)C [YDE-107] (H-[Hyp]GQLGLAGP-X1)
tested concentrations with significant attenuation of IL-6 cytokine release [3]: 30 μM, 10 μM, and 1 μM
Poly I:C induced IL-6 cytokine release (in words) [3]: attenuation of IL-6 release
Poly I:C induced IL-6 cytokine release (in words) ([3]; listed as YDE107): attenuate Poly I:C induced IL-6 cytokine release in a dose dependent manner
solubility [5]: 10000 µg/mL (≈ 11.2 mM)

Reference: US20230146455A1, “TREATMENT OF INFLAMMATORY DISEASES WITH PEPTIDES AND PHARMACEUTICAL COMPOSITIONS” (Yuyu Pharma, Inc., priority 2020, published 2023)
